# Reference: article PMC9993459, “A novel selective spleen tyrosine kinase inhibitor SKI-O-703 (cevidoplenib) ameliorates lupus nephritis and serum-induced arthritis in murine models” (Clinical and Experimental Immunology, 2022)
# Assays:
# [1] = target: Jak2 (Homo sapiens, UniProt O60674); assay: Kinase assay (LANCE Ultra TR-FRET), Jak2; type: biochemical
# Method: (§1) Kinase assays were conducted in 384-well plates using LANCE ultra 66 time-resolved fluorescence resonance energy transfer (TR-FRET) methods, according to the manufacturer’s instructions (Perkin-Elmer). In brief, each kinase was pre-incubated with a serially diluted compound for 30 min, incubated with ULight poly-GT peptide substrate and ATP for up to 1 h. Thirty minutes after adding Eu-labeled anti-phosphopeptides Ab diluted in LANCE Detection Buffer, LANCE signals were measured with an EnVision multilabel reader (Perkin-Elmer).
# [2] = target: RET (Homo sapiens, UniProt P07949); assay: Kinase assay (LANCE Ultra TR-FRET), RET; type: biochemical
# Method: as §1
# [3] = target: FLT3 (Homo sapiens, UniProt P36888); assay: Kinase assay (LANCE Ultra TR-FRET), FLT3; type: biochemical
# Method: as §1
# [4] = test system: Syk phosphorylation (Y525/526), BLNK, PLCγ1, Vav1; assay: Immunoblotting of phosphorylated Syk and downstream molecules in Ramos cells, human primary monocytes and THP-1 cells; type: cell-based; details: all three cell lines, dose-dependent, more potent than R406
# Method: THP-1 and Ramos cell lines and human CD14^+ monocytes were purchased from the American Type Culture Collection (ATCC) and Lonza, respectively. After treatment with Syk inhibitors for 1 h, THP-1 cells and monocytes were stimulated for 15 min with 100 μg/ml human IgG (Invitrogen), and Ramos cells were stimulated with 2 μg/ml anti-human IgM monoclonal Ab (mAb) (Bathyl). Cells were lysed in RIPA buffer containing 1% NP-40, 1% sodium deoxycholate, 0.1% SDS, and a mixture of protease and phosphatase inhibitors (Thermo Scientific). The lysates were assayed by standard immunoblotting methods and ELISA. Primary Abs used for immunoblotting were anti-phospho-Syk ([…]), anti-phospho-Vav (Y174), anti-phospho-PLCγ1 (Y1217) and anti-phospho-BLNK (Y96) Abs (all from Cell Signaling). ELISAs to detect phospho-Syk (Y525/526) were performed according to the manufacturer’s protocol (Cell Signaling).
# Figure 1: in vitro inhibitory effects of SKI-O-592 and -703 on Syk in B cells and monocytes. […] The relative intensities of protein phosphorylation levels were quantitated with reference to each lane of β-actin control bands. (D) Ramos cells, human primary monocytes, and THP cells were treated as in A–C for 24 h and levels of phosphorylated Syk (p-Syk) were measured by ELISA. […] A representative FACS profile and data on the dose-response of mean fluorescence intensity (MFI) are shown. […]
# [5] = test system: human peripheral T cells; assay: IL-2 production by activated T cells (ELISA); type: cell-based; details: fold lower than tofacitinib
# Method: Supplementary F igure 1. SKI -O-592 and - 703 s p a re TCR- mediated signaling in T cells
# (A) The stru cture of SKI-O-703. (B-D) Human per ipheral T cells sorted fro m human peripheral blood mononuclear cells (B and D) and mouse primary T cells sorted from spleen (C ) wer e stimulated with 5 µ g/ml anti- CD3 and 2 µ g/ml anti- CD28 m Abs in the presence or absence of inhibitors as indicated. Af ter one hour (B) and 24 h ours (C and D) of culture, cells we re assaye d […]
# by immunoblotting (B), FA C S ( C), and ELISA (D). […]
# of Zap70 and its downstream target PLCγ1. It’s effect on the suppression of IL-2 production […]
# Supplementary F igure 2. Gating strategy for FACS of spleen cells
# Erythrocyte-d epleted mo use spleen cells w ere assayed by FACS. Whole live cells were gated as shown: plasma cells (C D19lo/- CD138hi), GC B cells (CD19+ CD138- GL-7h i FA S hi), follicular B cells (CD19+ CD43- CD23hi CD21-), marginal zone B cells (CD19+ C D43- CD21hi CD23lo ), and Tfh cells (CD4+ CXCR5+ PD-1hi).
# Supplementary Figure 3. Differential susceptibility of short-lived and long-lived plasma […]
# When spleen cells from NZB/W mice were assay ed by FACS as in Fig. 5, they were stained intracellularly with anti- Ki-67 mAb to distinguish Ki-67+ dividing cells from Ki-67- non-dividing cells among t h e CD138hi population. […]
# FLT3, sequence (P36888 27-993, species assumed): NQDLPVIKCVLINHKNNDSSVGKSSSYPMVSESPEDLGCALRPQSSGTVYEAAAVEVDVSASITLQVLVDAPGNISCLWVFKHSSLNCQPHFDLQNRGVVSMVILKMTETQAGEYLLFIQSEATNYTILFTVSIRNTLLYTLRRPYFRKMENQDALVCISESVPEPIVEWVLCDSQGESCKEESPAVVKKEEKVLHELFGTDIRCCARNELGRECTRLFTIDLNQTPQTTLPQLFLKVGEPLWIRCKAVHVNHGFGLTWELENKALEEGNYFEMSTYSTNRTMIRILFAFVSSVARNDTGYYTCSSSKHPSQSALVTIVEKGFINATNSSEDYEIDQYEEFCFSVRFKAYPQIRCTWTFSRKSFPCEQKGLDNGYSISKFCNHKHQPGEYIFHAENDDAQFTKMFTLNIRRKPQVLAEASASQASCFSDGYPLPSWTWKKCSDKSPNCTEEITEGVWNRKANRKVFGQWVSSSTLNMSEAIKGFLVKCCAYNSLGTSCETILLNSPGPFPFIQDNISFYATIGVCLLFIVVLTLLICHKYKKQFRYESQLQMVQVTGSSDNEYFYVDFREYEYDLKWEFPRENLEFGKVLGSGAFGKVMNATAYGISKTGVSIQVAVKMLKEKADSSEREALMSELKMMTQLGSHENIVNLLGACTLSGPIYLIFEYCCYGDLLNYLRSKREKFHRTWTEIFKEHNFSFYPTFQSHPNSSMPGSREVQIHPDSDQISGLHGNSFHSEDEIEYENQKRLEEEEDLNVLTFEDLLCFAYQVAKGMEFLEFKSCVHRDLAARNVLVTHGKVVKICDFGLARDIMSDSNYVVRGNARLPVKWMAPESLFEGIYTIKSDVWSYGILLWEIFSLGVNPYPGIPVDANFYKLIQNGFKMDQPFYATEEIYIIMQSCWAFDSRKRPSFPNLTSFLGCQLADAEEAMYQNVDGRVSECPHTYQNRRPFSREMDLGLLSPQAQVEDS
# Jak2, sequence (O60674 whole entry, species assumed): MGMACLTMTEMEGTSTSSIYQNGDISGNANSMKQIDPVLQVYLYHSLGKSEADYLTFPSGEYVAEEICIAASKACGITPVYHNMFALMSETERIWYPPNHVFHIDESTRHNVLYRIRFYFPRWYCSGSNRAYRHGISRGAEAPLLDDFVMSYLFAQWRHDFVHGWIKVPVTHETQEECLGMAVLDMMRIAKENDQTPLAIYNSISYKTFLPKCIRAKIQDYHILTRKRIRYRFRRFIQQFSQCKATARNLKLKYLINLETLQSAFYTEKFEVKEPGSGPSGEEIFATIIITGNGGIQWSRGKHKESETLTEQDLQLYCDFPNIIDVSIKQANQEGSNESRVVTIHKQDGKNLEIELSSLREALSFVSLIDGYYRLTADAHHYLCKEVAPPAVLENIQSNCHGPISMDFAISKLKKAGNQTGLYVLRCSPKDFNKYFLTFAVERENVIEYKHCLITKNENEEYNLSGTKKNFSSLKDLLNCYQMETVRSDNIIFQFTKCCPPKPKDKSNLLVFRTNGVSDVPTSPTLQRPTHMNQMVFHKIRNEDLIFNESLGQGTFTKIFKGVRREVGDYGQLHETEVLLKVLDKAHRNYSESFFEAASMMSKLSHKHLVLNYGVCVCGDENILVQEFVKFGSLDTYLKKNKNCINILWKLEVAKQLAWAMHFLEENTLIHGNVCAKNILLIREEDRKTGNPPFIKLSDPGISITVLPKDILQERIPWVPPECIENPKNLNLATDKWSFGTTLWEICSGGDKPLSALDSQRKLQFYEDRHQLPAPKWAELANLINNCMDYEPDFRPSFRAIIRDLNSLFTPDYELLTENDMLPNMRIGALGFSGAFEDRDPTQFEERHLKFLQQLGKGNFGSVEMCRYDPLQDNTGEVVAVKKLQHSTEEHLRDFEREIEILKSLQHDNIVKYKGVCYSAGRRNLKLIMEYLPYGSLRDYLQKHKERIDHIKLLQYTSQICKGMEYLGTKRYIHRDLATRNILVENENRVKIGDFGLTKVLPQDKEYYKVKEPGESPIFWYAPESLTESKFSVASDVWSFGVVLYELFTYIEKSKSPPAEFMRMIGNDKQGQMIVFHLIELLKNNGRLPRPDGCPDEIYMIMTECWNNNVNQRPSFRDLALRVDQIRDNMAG
# RET, sequence (P07949 29-1114, species assumed): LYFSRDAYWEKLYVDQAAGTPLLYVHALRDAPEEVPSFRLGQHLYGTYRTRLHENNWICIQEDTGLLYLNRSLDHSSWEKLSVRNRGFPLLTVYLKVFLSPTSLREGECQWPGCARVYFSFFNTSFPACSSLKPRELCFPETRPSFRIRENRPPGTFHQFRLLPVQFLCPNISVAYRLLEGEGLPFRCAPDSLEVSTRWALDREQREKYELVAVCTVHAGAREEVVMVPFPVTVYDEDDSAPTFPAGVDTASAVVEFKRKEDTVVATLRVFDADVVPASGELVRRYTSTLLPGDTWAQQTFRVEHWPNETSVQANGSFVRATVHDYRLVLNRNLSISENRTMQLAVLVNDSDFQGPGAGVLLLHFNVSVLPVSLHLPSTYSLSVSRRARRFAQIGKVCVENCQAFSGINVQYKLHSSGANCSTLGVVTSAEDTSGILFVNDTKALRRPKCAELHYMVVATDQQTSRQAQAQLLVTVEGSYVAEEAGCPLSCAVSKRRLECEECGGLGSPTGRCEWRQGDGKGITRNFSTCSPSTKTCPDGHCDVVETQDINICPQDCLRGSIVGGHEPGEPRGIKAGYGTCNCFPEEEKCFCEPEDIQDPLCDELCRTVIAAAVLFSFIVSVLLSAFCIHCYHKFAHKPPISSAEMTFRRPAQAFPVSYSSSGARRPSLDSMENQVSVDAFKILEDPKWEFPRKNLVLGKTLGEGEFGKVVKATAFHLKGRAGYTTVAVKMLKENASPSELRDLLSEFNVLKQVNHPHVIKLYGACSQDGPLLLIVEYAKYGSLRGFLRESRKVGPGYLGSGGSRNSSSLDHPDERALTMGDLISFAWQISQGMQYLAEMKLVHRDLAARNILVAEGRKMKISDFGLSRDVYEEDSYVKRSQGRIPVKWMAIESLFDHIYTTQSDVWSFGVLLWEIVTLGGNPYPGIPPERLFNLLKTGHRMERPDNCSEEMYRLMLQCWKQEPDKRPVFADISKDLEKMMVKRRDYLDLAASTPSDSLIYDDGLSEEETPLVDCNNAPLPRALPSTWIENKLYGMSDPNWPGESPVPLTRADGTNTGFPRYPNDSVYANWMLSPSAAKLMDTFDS
compound,measurement,setting,value
Cc1nn(-c2ccnc(Nc3ccc4c(c3)c(C(=O)C3CC3)cn4C)n2)cc1CN1C[C@H](O)CO1 [SKI-O-592],Ratio to Syk (Jak2),[1]; IC50 ratio to Syk,302
same,IC50,"[1]; kinase activity, TR-FRET",1.86 µM
same,Ratio to Syk (RET),[2]; IC50 ratio to Syk,67
same,IC50,"[2]; kinase activity, TR-FRET",0.412 µM
same,Ratio to Syk (FLT3),[3]; IC50 ratio to Syk,289
same,IC50,"[3]; kinase activity, TR-FRET",1.78 µM
same,"Phosphorylation of Syk Y525/526 and downstream BLNK, PLCγ1, Vav1 (immunoblotting)",[4],inhibited phosphorylation
same,Potency on IL-2 production relative to tofacitinib (IC50),[5],25 fold
